Legend:
[1] = tested on: ABC transporter coupling ATPase; experiment: ABC transporter-related ATPase activity assay on small intestine membrane proteins; format: in vivo, mice; conditions: mouse small intestine, intragastric, seven days, p < 0.05
Description: Healthy male ICR mice (18-22 g of body weight) were purchased from SPF Animal Centre of […] Medical University ([…], China). […] The drugs were administrated intragastrically for seven consecutive days.

Plasmodium berghei = tested on: Plasmodium berghei; parameters: method as in Wei et al. [2015]; conditions: ref Wei et al. [2015]; cited from earlier work
[2] = ref Wei et al. [2015]; cited from earlier work
MDR1 mRNA = experiment: MDR1 expression in small intestine determined by RT-qPCR; conditions: mouse small intestine; intragastric, seven days; verapamil 40 mg/kg, ART-verapamil 1:1, ART-CHR all ratios, CHR alone 80 mg/kg; p < 0.01
Procedure: All animals were housed in polycarbonate cages and acclimated in an environmentally controlled room (23 ± 2 °C, with adequate ventilation and a 12 h light/dark cycle) prior to use. All animals were provided with standard laboratory food and water before and during the experiments. […] The drugs were administrated intragastrically for seven consecutive days.
The mice were euthanized by cervical vertebra dislocation. Small intestines were harvested and cleaned using normal saline at least three times. Total RNA was extracted from the mouse small intestine using E.Z.N.A.^TM Total RNA Kit (OMEGA Bio-Tek, Norcross, GA), in accordance with the instructions of the manufacturer. RNA concentrations were measured with a microplate spectrophotometer (Bio-RAD, Hercules, CA) at 260 nm. RNA quality was evaluated using electrophoresis in 1% agarose gels. Total RNA (3 μg) was reverse transcribed into first-strand complementary DNA (cDNA) using Thermo Scientific RevertAid First Strand cDNA Synthesis Kit (Thermo Scientific, Waltham, MA). Each cDNA sample (1 μL) was amplified with 12 μL Thermo Scientific Maxima SYBR Green qPCR Master Mix (2×). ROX Solution provided (Thermo Scientific, Waltham, MA) and 1 μmol of each primer. […]

rat CYP3A = conditions: ref Wei et al. [2015]; cited from earlier work
P-gp = P-gp expression levels in small intestine by western blot analysis; format: in vivo, ICR mice; conditions: mouse small intestine, intragastric, seven days; for P-gp expression compared with negative control: normalized to Na+-K+-ATPase
Procedure: Healthy male ICR mice (18-22 g of body weight) were purchased from SPF Animal Centre of […] Medical University ([…], China). […] The drugs were administrated intragastrically for seven consecutive days. Membrane proteins were harvested by […] Membrane and Plasma Protein Purification Kit ([…], Nanjing, China), and the protein concentrations were determined using KeyGEN BCA Protein Quantitation Assay kit ([…], Nanjing, China). An equal quantity of protein (48 μg) from membrane protein was resolved using 7.5% SDS-PAGE gel and subsequently transferred onto nitrocellulose membranes (Bio-Trace, Auckland, New Zealand). […] Antibodies were both purchased from Abcam (Cambridge, United Kingdom). The membranes were incubated with horseradish peroxidase-conjugated AffiniPure Goat Anti-Rabbit IgG (ZSGB-BIO, Beijing, China) for 1 h and signals were observed using SuperSignal West Pico (Thermo Scientific, Waltham, MA). Western blotting bands intensity was quantified by densitometric analysis using Image J version 2 × (NIH Image Software, […]).

Row | SMILES | ATPase activity compared with ART alone ([1]; ART-CHR 1:4 (40:160 mg/kg), CHR alone 80 mg/kg) | effect of CHR on anti-malarial efficacy of ART (Plasmodium berghei) | effect of CHR on rat plasma concentration of ART [2] | MDR1 mRNA expression compared with ART alone (MDR1 mRNA) | manner of inhibition of rat CYP3A (rat CYP3A) | P-gp expression levels compared with ART alone (P-gp; ART-verapamil (1:1), ART-CHR (1:0.1, 1:1, 1:2, 1:4), CHR alone, p < 0.05 and p < 0.01) | P-gp expression compared with negative control (P-gp) | ATPase activity versus the vehicle ([1]; ART 40 mg/kg, verapamil 40 mg/kg)
1 | COc1cc(-c2oc3cc(OC)c(OC)c(O)c3c(=O)c2OC)ccc1O [CHR, Chrysosplenetin] | slight increase | significantly increased | significantly increased | reversed to normal levels | uncompetitive | significantly decreased | No significant difference | 
2 | C[C@@H]1CC[C@H]2[C@@H](C)C(=O)O[C@@H]3O[C@@]4(C)CC[C@@H]1[C@]32OO4 [ART, artemisinin, reference compound] |  |  |  |  |  |  | up-regulated | remarkably decreased
